Measurements from BindingDB's records for doi:10.1039/d3md00036b (n/a, 2023).

Molecular target: Metallo-beta-lactamase type 2 (Klebsiella pneumoniae, UniProt C7C422)
Assay: Binding affinity to bacterial NDM-1 (unknown origin) assessed as inhibition constant

Chain of Metallo-beta-lactamase type 2 (C7C422 whole entry): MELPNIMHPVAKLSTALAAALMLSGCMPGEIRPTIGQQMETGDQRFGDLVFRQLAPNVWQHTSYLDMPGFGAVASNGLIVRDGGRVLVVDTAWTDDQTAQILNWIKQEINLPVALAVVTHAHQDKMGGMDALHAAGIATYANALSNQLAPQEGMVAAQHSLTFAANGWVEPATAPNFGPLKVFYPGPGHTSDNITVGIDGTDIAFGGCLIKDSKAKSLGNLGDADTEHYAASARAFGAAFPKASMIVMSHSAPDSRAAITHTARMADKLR

How did the Ki turn out when `CN1CCN(C(=S)N/N=C/c2ccccc2O)CC1` was run?
Its Ki is 0.44 nM.
